Measurements: patent publication US20240132431A1, “METHOD FOR ALKYLATING ACIDIC FUNCTIONAL GROUP” (Chugai Seiyaku Kabushiki Kaisha, priority 2021, published 2024)

Biological target: T1, Bcl-2 protein (Recombinant Human Bcl-2 Protein) (Homo sapiens, UniProt P10415)
T1 construct: purchased Novus NBP2-34889
Test: Binding evaluation of mixture library compounds to Bcl-2 using AS-MS (affinity selection mass spectrometry)
Settings: AS-MS, mixture library, Bcl-2, ASMS Ratio(%)=(A−C)/B×100; for ASMS ratio (%) n = 1: replicate n = 1; for ASMS ratio (%) n = 2: replicate n = 2
Outline: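 Affinity selection MS: Bcl-2 20 μM + 1200-cpd mixture, […]/cpd, Tris pH 7.4 buffer w/ Tween-20, DTT; 1 h 23° C dark; P-2 spin SEC; MeCN/MeOH extraction; RP LC/MS. ASMS Ratio(%) = (A−C)/B×100.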

T1 sequence (P10415 whole entry): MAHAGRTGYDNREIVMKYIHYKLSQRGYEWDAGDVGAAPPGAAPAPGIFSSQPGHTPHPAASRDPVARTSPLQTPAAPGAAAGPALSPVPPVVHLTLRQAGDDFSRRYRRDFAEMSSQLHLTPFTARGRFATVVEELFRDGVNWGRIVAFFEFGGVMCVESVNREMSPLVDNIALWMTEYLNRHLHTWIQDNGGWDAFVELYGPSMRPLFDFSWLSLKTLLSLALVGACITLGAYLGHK

| SMILES | ASMS ratio (%) n = 1 | ASMS ratio (%) n = 2 |
| --- | --- | --- |
| CCOc1cccc(-c2cc(CN3CCN(c4ccc(C(=O)N(CC)CC)cc4)CC3)cc(C(F)(F)F)c2)c1 [B4J061-01, 4-[4-[[3-(3-Ethoxyphenyl)-5-(trifluoromethyl)phenyl]methyl]piperazin-1-yl]-N,N-diethylbenzamide] | 1.6% | −1.8% |
| CCOc1cncc(-c2cc(CN3CCN(c4ccc(C(=O)N(CC)CC)cc4)CC3)cc(C(F)(F)F)c2)c1 [B4J062-01, 4-[4-[[3-(5-Ethoxypyridin-3-yl)-5-(trifluoromethyl)phenyl]methyl]piperazin-1-yl]-N,N-diethylbenzamide] | 0.0% | 0.0% |
| CCOc1cccc(-c2cc(CN3CCN(c4ccc(C(=O)N(CC)CC)cc4)CC3)cc(OC(F)(F)F)c2)c1 [B4J063-01, 4-[4-[[3-(3-Ethoxyphenyl)-5-(trifluoromethoxy)phenyl]methyl]piperazin-1-yl]-N,N-diethylbenzamide] | 4.5% | 0.1% |
| CCOc1cncc(-c2cc(CN3CCN(c4ccc(C(=O)N(CC)CC)cc4)CC3)cc(OC(F)(F)F)c2)c1 [B4J064-01, 4-[4-[[3-(5-Ethoxypyridin-3-yl)-5-(trifluoromethoxy)phenyl]methyl]piperazin-1-yl]-N,N-diethylbenzamide] | 1.6% | 0.0% |
| CCOc1cccc(-c2ccc(CN3CCN(c4ccc(C(=O)N(CC)CC)cc4)CC3)c3ccccc23)c1 [B4J065-01, 4-[4-[[4-(3-Ethoxyphenyl)naphthalen-1-yl]methyl]piperazin-1-yl]-N,N-diethylbenzamide] | 0.0% | 0.0% |
| CCOc1cncc(-c2ccc(CN3CCN(c4ccc(C(=O)N(CC)CC)cc4)CC3)c3ccccc23)c1 [B4J066-01, 4-[4-[[4-(5-Ethoxypyridin-3-yl)naphthalen-1-yl]methyl]piperazin-1-yl]-N,N-diethylbenzamide] | 0.0% | −1.5% |
| CCOc1cccc(-c2csc(CN3CCN(c4ccc(C(=O)N(CC)CC)cc4)CC3)c2)c1 [B4J067-01, 4-[4-[[4-(3-Ethoxyphenyl)thiophen-2-yl]methyl]piperazin-1-yl]-N,N-diethylbenzamide] | −11.0% | −5.5% |
| CCOc1cncc(-c2csc(CN3CCN(c4ccc(C(=O)N(CC)CC)cc4)CC3)c2)c1 [B4J068-01, 4-[4-[[4-(5-Ethoxypyridin-3-yl)thiophen-2-yl]methyl]piperazin-1-yl]-N,N-diethylbenzamide] | 0.7% | 0.0% |
| CCOc1cccc(C#Cc2ccccc2CN2CCN(c3ccc(C(=O)N(CC)CC)cc3)CC2)c1 [B4J069-01, 4-[4-[[2-[2-(3-Ethoxyphenyl)ethynyl]phenyl]methyl]piperazin-1-yl]-N,N-diethylbenzamide] | 1.8% | −0.8% |
| CCOc1cncc(C#Cc2ccccc2CN2CCN(c3ccc(C(=O)N(CC)CC)cc3)CC2)c1 [B4J070-01] | 0.0% | 0.0% |
| CCOc1cccc(-c2ccccc2CN2CCN(c3ccc(C(=O)N(CC)CC)nn3)CC2)c1 [B4J071-01] | 0.4% | −0.5% |
| CCOc1cncc(-c2ccccc2CN2CCN(c3ccc(C(=O)N(CC)CC)nn3)CC2)c1 [B4J072-01, 6-[4-[[2-(5-Ethoxypyridin-3-yl)phenyl]methyl]piperazin-1-yl]-N,N-diethylpyridazine-3-carboxamide] | −1.6% | 0.9% |
| CCOc1cccc(-c2ccc(CN3CCN(c4ccc(C(=O)N(CC)CC)nn4)CC3)cc2C)c1 [B4J073-01, 6-[4-[[4-(3-Ethoxyphenyl)-3-methylphenyl]methyl]piperazin-1-yl]-N,N-diethylpyridazine-3-carboxamide] | 2.1% | 0.0% |
| CCOc1cccc(-c2ccc(CN3CCN(c4ccc(C(=O)N(CC)CC)nn4)CC3)c(CC)c2)c1 [B4J075-01, 6-[4-[[4-(3-Ethoxyphenyl)-2-ethylphenyl]methyl]piperazin-1-yl]-N,N-diethylpyridazine-3-carboxamide] | 0.0% | 0.0% |
| CCOc1cccc(-c2ccc(CN3CCN(c4ccc(C(=O)N(CC)CC)nn4)CC3)cc2F)c1 [B4J077-01, 6-[4-[[4-(3-Ethoxyphenyl)-3-fluorophenyl]methyl]piperazin-1-yl]-N,N-diethylpyridazine-3-carboxamide] | 1.2% | −5.5% |
| CCOc1cncc(-c2ccc(CN3CCN(c4ccc(C(=O)N(CC)CC)nn4)CC3)c(OC)c2)c1 [B4J080-01] | 0.0% | 0.0% |
| CCOc1cccc(-c2cc(CN3CCN(c4ccc(C(=O)N(CC)CC)nn4)CC3)cc(OCC)c2)c1 [B4J081-01, 6-[4-[[3-Ethoxy-5-(3-ethoxyphenyl)phenyl]methyl]piperazin-1-yl]-N,N-diethylpyridazine-3-carboxamide] | 0.0% | 0.0% |
| CCOc1cncc(-c2cc(CN3CCN(c4ccc(C(=O)N(CC)CC)nn4)CC3)cc(OCC)c2)c1 [B4J082-01, 6-[4-[[3-Ethoxy-5-(5-ethoxypyridin-3-yl)phenyl]methyl]piperazin-1-yl]-N,N-diethylpyridazine-3-carboxamide] | 0.0% | 0.0% |
| CCOc1cccc(-c2cc(OC)c(CN3CCN(c4ccc(C(=O)N(CC)CC)nn4)CC3)c(OC)c2)c1 [B4J085-01, 6-[4-[[4-(3-Ethoxyphenyl)-2,6-dimethoxyphenyl]methyl]piperazin-1-yl]-N,N-diethylpyridazine-3-carboxamide] | 0.0% | 2.8% |
| CCOc1cncc(-c2cc(OC)c(CN3CCN(c4ccc(C(=O)N(CC)CC)nn4)CC3)c(OC)c2)c1 [B4J086-01, 6-[4-[[4-(5-Ethoxypyridin-3-yl)-2,6-dimethoxyphenyl]methyl]piperazin-1-yl]-N,N-diethylpyridazine-3-carboxamide] | 0.0% | 0.0% |
| CCOc1cncc(-c2cc(CN3CCN(c4ccc(C(=O)N(CC)CC)nn4)CC3)cc(C(F)(F)F)c2)c1 [B4J088-01] | 0.0% | 0.0% |

Continued, values first:

| ASMS ratio (%) n = 1 | ASMS ratio (%) n = 2 | SMILES |
| --- | --- | --- |
| 0.0% | 0.0% | CCOc1cncc(-c2ccc(CN3CCN(c4ccc(C(=O)N(CC)CC)nn4)CC3)cc2C)c1 [B4J074-01, 6-[4-[[4-(5-Ethoxypyridin-3-yl)-3-methylphenyl]methyl]piperazin-1-yl]-N,N-diethylpyridazine-3-carboxamide] |
| 0.0% | 0.0% | CCOc1cncc(-c2ccc(CN3CCN(c4ccc(C(=O)N(CC)CC)nn4)CC3)c(CC)c2)c1 [B4J076-01, 6-[4-[[4-(5-Ethoxypyridin-3-yl)-2-ethylphenyl]methyl]piperazin-1-yl]-N,N-diethylpyridazine-3-carboxamide] |
| −0.5% | 0.9% | CCOc1cncc(-c2ccc(CN3CCN(c4ccc(C(=O)N(CC)CC)nn4)CC3)cc2F)c1 [B4J078-01, 6-[4-[[4-(5-Ethoxypyridin-3-yl)-3-fluorophenyl]methyl]piperazin-1-yl]-N,N-diethylpyridazine-3-carboxamide] |
| 0.0% | 0.0% | CCOc1cccc(-c2ccc(CN3CCN(c4ccc(C(=O)N(CC)CC)nn4)CC3)c(OC)c2)c1 [B4J079-01, 6-[4-[[4-(3-Ethoxyphenyl)-2-methoxyphenyl]methyl]piperazin-1-yl]-N,N-diethylpyridazine-3-carboxamide] |
| 0.0% | 0.0% | CCOc1cccc(-c2cc(CN3CCN(c4ccc(C(=O)N(CC)CC)nn4)CC3)cc(OC(C)C)c2)c1 [B4J083-01, 6-[4-[[3-(3-Ethoxyphenyl)-5-propan-2-yloxyphenyl]methyl]piperazin-1-yl]-N,N-diethylpyridazine-3-carboxamide] |
| 0.0% | −0.6% | CCOc1cncc(-c2cc(CN3CCN(c4ccc(C(=O)N(CC)CC)nn4)CC3)cc(OC(C)C)c2)c1 [B4J084-01, 6-[4-[[3-(5-Ethoxypyridin-3-yl)-5-propan-2-yloxyphenyl]methyl]piperazin-1-yl]-N,N-diethylpyridazine-3-carboxamide] |
| 0.9% | 0.3% | CCOc1cccc(-c2cc(CN3CCN(c4ccc(C(=O)N(CC)CC)nn4)CC3)cc(C(F)(F)F)c2)c1 [B4J087-01, 6-[4-[[3-(3-Ethoxyphenyl)-5-(trifluoromethyl)phenyl]methyl]piperazin-1-yl]-N,N-diethylpyridazine-3-carboxamide] |
| 3.9% | 0.4% | CCOc1cccc(-c2cc(CN3CCN(c4ccc(C(=O)N(CC)CC)nn4)CC3)cc(OC(F)(F)F)c2)c1 [B4J089-01, 6-[4-[[3-(3-Ethoxyphenyl)-5-(trifluoromethoxy)phenyl]methyl]piperazin-1-yl]-N,N-diethylpyridazine-3-carboxamide] |
| 1.4% | −1.5% | CCOc1cncc(-c2cc(CN3CCN(c4ccc(C(=O)N(CC)CC)nn4)CC3)cc(OC(F)(F)F)c2)c1 [B4J090-01, 6-[4-[[3-(5-Ethoxypyridin-3-yl)-5-(trifluoromethoxy)phenyl]methyl]piperazin-1-yl]-N,N-diethylpyridazine-3-carboxamide] |
| 3.7% | 1.5% | CCOc1cccc(-c2ccc(CN3CCN(c4ccc(C(=O)N(CC)CC)nn4)CC3)c3ccccc23)c1 [B4J091-01, 6-[4-[[4-(3-Ethoxyphenyl)naphthalen-1-yl]methyl]piperazin-1-yl]-N,N-diethylpyridazine-3-carboxamide] |
